Laboratory results reported in patent publication US20250320184A1 (SIRONAX LTD., priority 2022, published 2025).

Each molecule was assayed against T1, SARM1 (50-724) (Homo sapiens, UniProt Q6SZW1) (assay: biochemical).
T1 sequence (Q6SZW1 50-724): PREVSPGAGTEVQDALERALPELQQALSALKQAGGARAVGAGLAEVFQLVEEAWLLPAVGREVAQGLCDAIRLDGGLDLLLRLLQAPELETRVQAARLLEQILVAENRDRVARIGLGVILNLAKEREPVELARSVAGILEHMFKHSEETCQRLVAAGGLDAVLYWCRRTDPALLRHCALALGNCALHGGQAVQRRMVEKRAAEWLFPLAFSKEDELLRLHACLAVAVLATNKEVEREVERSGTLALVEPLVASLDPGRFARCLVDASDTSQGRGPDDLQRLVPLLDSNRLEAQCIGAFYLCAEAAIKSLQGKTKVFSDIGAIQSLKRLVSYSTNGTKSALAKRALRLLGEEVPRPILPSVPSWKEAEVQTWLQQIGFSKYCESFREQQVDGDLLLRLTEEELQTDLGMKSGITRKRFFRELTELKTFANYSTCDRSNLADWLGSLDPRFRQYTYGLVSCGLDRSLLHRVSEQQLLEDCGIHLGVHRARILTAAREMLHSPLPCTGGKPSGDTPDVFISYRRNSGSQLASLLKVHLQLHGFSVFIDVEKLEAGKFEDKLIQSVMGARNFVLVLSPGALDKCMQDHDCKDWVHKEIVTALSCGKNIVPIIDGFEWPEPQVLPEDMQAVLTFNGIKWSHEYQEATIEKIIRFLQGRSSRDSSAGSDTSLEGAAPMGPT
Procedure: An enzymatic assay was performed in a 384-well plate using Dulbecco's phosphate-buffered saline (PBS) as the reaction buffer. […] The reaction was initiated by adding a mixture of 200 μM nicotinamide mononucleotide (NMN) as activator and 100 μM NAD^+ as substrate. After 1 h of incubation at room temperature, the reaction was terminated with 10 times volume of 70% acetonitrile, then centrifuged at 3800 rpm for 10 min.
`CC(Nc1ccc2cc[nH]c(=O)c2c1)c1c(Cl)ccc(Cl)c1Cl` (racemic) [Compound 185, 7-((1-(2,3,6-trichlorophenyl)ethyl)amino)isoquinolin-1(2H)-one] gave an IC50 of under 100 nM. Molecule `CC(Nc1ccc2ncn(C)c(=O)c2c1)c1cccc(Cl)c1Cl` (racemic) [Example 133, 6-((1-(2,3-dichlorophenyl)ethyl)amino)-3-methylquinazolin-4(3H)-one] has an IC50 of 100 to 500 nM. In the case of `CC(Nc1ccc2cc[nH]c(=O)c2c1)c1nccc(Cl)c1Cl` (single isomer, unassigned) [Example 194B], the IC50 is reported as over 1000 nM. `CC(Nc1cc(F)c2ncn(-c3cnn[nH]3)c(=O)c2c1)c1nc(Cl)c(Cl)s1` (racemic) [Example 372, 6-((1-(4,5-dichlorothiazol-2-yl)ethyl)amino)-8-fluoro-3-(1H-1,2,3-triazol-5-yl)quinazolin-4(3H)-one] was tested, and the IC50 was under 100 nM. In the case of `Cc1c2ccc(NS(=O)(=O)c3cccc(Cl)c3Cl)cc2nn1C` [Compound 72, 2,3-dichloro-N-(2,3-dimethyl-2H-indazol-6-yl)benzenesulfonamide], the IC50 is reported as under 100 nM. Molecule `Cc1nc(C(C)Nc2ccc3nc[nH]c(=O)c3c2)sc1Cl` (racemic) [Compound 216, 6-((1-(5-chloro-4-methylthiazol-2-yl)ethyl)amino)quinazolin-4(3H)-one] has an IC50 of under 100 nM. Molecule `Cc1cc(F)cc(C(Nc2ccc3c(c2)C(=O)NCC3)C(C)C)c1` (racemic) [Example 144, 7-((1-(3-fluoro-5-methylphenyl)-2-methylpropyl)amino)-3,4-dihydroisoquinolin-1(2H)-one] has an IC50 of 100 to 500 nM. In the case of `Cc1c2ccc(NC(C)c3nc(Cl)c(Cl)s3)cc2nn1CCO` (racemic) [Compound 307, 2-(6-((1-(4,5-dichlorothiazol-2-yl)ethyl)amino)-3-methyl-2H-indazol-2-yl)ethan-1-ol], the IC50 is reported as under 100 nM. `CC(Nc1ccc2cc[nH]c(=O)c2c1)c1nc(Cl)sc1Cl` (racemic) [Compound 190, 7-((1-(2,5-dichlorothiazol-4-yl)ethyl)amino)isoquinolin-1(2H)-one] showed an IC50 of 100 to 500 nM. Molecule `C[C@@H](Nc1ccc2c(c1)NC(=O)C2(C)C)c1nc(Cl)c(Cl)s1` (single isomer, unassigned) [Compound 234] has an IC50 of under 100 nM. For `Cc1c(F)cccc1S(=O)(=O)Nc1cccc(-c2cnn(C)c2)c1` [Example 161, 3-fluoro-2-methyl-N-(3-(1-methyl-1H-pyrazol-4-yl)phenyl)benzenesulfonamide], the IC50 was over 1000 nM. Work on `COc1cc2cc(NS(=O)(=O)c3cccc(Cl)c3Cl)ccc2cn1` [Compound 89, 2,3-dichloro-N-(3-methoxyisoquinolin-6-yl)benzenesulfonamide] yielded an IC50 of 100 to 500 nM. In the case of `Cc1cc(F)cc(C(Nc2ccc3c(c2)C(=O)NCC3)c2cccnc2)c1` (stereo not drawn) [Compound 178], the IC50 is reported as over 1000 nM. `CC1(C)CN(C(=O)C2CC2)c2cc(NS(=O)(=O)c3cccc(Cl)c3Cl)ccc21` [Compound 243, 2,3-dichloro-N-(1-(cyclopropanecarbonyl)-3,3-dimethylindolin-6-yl)benzenesulfonamide] was tested, and the IC50 was under 100 nM. Work on `Cc1n[nH]c(=O)c2cc(N[C@H](C)c3c(Cl)ccc(F)c3Cl)ccc12` (single isomer, unassigned) [Example 237A] yielded an IC50 of 500 to 1000 nM. Work on `O=C1Nc2cc(NS(=O)(=O)c3cccc(Cl)c3Cl)ccc2CO1` [Compound 224, 2,3-dichloro-N-(2-oxo-1,4-dihydro-2H-benzo[d][1,3]oxazin-7-yl)benzenesulfonamide] yielded an IC50 of under 100 nM. With `Clc1cccc(C(Nc2ccc3cccnc3c2)C2CC2)c1Cl` (stereo not drawn) [Example 180, N-(cyclopropyl(2,3-dichlorophenyl)methyl)quinolin-7-amine] the IC50 was 100 to 500 nM. In the case of `Cc1c(F)cccc1[S+]([O-])Nc1ccc2c(c1)C(=O)NCC2` (stereo not drawn) [Example 158], the IC50 is reported as over 1000 nM. Work on `CC(C)c1c[nH]c(=O)c2cc(NS(=O)(=O)c3cccc(Cl)c3Cl)ccc12` [Compound 66, 2,3-dichloro-N-(4-isopropyl-1-oxo-1,2-dihydroisoquinolin-7-yl)benzenesulfonamide] yielded an IC50 of over 1000 nM. `N#Cc1cccc2ccc(NS(=O)(=O)c3cccc(Cl)c3Cl)cc12` [Compound 85, 2,3-dichloro-N-(8-cyanonaphthalen-2-yl)benzenesulfonamide] showed an IC50 of 100 to 500 nM. With `CC(Nc1ccc2cccnc2c1)c1cccc(Cl)c1Cl` (racemic) [Example 129, N-(1-(2,3-dichlorophenyl)ethyl)quinolin-7-amine] the IC50 was 500 to 1000 nM. With `NC(=O)Cc1ccc(NS(=O)(=O)c2cccc(Cl)c2Cl)cc1` [Compound 31, 2-(4-((2,3-dichlorophenyl)sulfonamido)phenyl)acetamide] the IC50 was 100 to 500 nM. Molecule `CC(Nc1ccc2cc[nH]c(=O)c2c1)c1ccc(Cl)cc1` (racemic) [Example 116, 7-((1-(4-chlorophenyl)ethyl)amino)isoquinolin-1(2H)-one] has an IC50 of over 1000 nM. For `Cn1cnc2cc(NS(=O)(=O)c3cccc(Cl)c3Cl)ccc21` [Compound 77, 2,3-dichloro-N-(1-methyl-1H-benzo[d]imidazol-5-yl)benzenesulfonamide], the IC50 was 100 to 500 nM. Work on `CC(Nc1ccc2cc[nH]c(=O)c2c1)c1nc(Cl)c(Cl)n1C` (racemic) [Compound 233, 7-((1-(4,5-dichloro-1-methyl-1H-imidazol-2-yl)ethyl)amino)isoquinolin-1(2H)-one] yielded an IC50 of 100 to 500 nM. Molecule `O=C1Nc2cc(NS(=O)(=O)c3cccc(Cl)c3Cl)ccc2C12CC2` [Compound 208, 2,3-dichloro-N-(2′-oxospiro[cyclopropane-1,3′-indolin]-6′-yl)benzenesulfonamide] has an IC50 of under 100 nM. For `CC(Nc1ccc2c(c1)C(=O)NCC2)c1ccc(Cl)c(F)c1` (racemic) [Example 96, 7-((1-(4-chloro-3-fluorophenyl)ethyl)amino)-3,4-dihydroisoquinolin-1(2H)-one], the IC50 was over 1000 nM. `CC(Nc1cc(F)c2ncn(CC(N)=O)c(=O)c2c1)c1nc(Cl)c(Cl)s1` (single isomer, unassigned) [Compound 323A] was tested, and the IC50 was over 1000 nM. `Cc1n[nH]c(=O)c2cc(N[C@@H](C)c3nc(Cl)c(Cl)s3)ccc12` (single isomer, unassigned) [Example 239A] showed an IC50 of under 100 nM. In the case of `Cc1cc(F)cc(C(Nc2ccc3c(c2)C(=O)NCC3)C(F)(F)F)c1` (stereo not drawn) [Example 174, 7-((2,2,2-trifluoro-1-(3-fluoro-5-methylphenyl)ethyl)amino)-3,4-dihydroisoquinolin-1(2H)-one], the IC50 is reported as 100 to 500 nM. For `CC1CCC(C)N(S(=O)(=O)Nc2ccc3c(c2)C(=O)NCC3)C1` (mixture of isomers) [Example 172, 2,5-dimethyl-N-(1-oxo-1,2,3,4-tetrahydroisoquinolin-7-yl)piperidine-1-sulfonamide], the IC50 was over 1000 nM. With `Cc1c2ccc(NC(C)c3nc(Cl)c(Cl)s3)cc2nn1[C@@H]1CC[C@H](O)C1` (stereo in doubt) [Compound 336, 3-(6-((1-(4,5-dichlorothiazol-2-yl)ethyl)amino)-3-methyl-2H-indazol-2-yl)cyclopentan-1-ol] the IC50 was under 100 nM. Work on `O=C1NCCc2ccc(NS(=O)(=O)c3ccc(F)c(Cl)c3)cc21` [Example 9A, 3-chloro-4-fluoro-N-(1-oxo-1,2,3,4-tetrahydroisoquinolin-7-yl)benzenesulfonamide] yielded an IC50 of over 1000 nM. In the case of `CC(Nc1ccc2cc[nH]c(=O)c2c1)c1ccccc1Cl` (racemic) [Example 110, 7-((1-(2-chlorophenyl)ethyl)amino)isoquinolin-1(2H)-one], the IC50 is reported as 100 to 500 nM. `Cc1cccc(F)c1S(=O)(=O)Nc1ccc2c(c1)C(=O)NCC2` [Compound 61, 2-fluoro-6-methyl-N-(1-oxo-1,2,3,4-tetrahydroisoquinolin-7-yl)benzenesulfonamide] gave an IC50 of over 1000 nM. Molecule `CC(Nc1ccc2ccn(CC(N)=O)c(=O)c2c1)c1nn(C)c(C2CC2)c1Cl` (racemic) [Compound 315, 2-(7-((1-(4-chloro-5-cyclopropyl-1-methyl-1H-pyrazol-3-yl)ethyl)amino)-1-oxoisoquinolin-2(1H)-yl)acetamide] has an IC50 of under 100 nM. Work on `CC(Nc1ccc2c(c1)C(=O)N(CC(N)=O)C2(C)C)c1nc(Cl)c(Cl)s1` (single isomer, unassigned) [Compound 320A] yielded an IC50 of over 1000 nM. In the case of `Cc1cc(F)cc(C(CO)Oc2ccc3c(c2)C(=O)NCC3)c1` (stereo not drawn) [Example 176, 7-(1-(3-fluoro-5-methylphenyl)-2-hydroxyethoxy)-3,4-dihydroisoquinolin-1(2H)-one], the IC50 is reported as over 1000 nM. `Cc1cc(C)c(S(=O)(=O)Nc2ccc3c(c2)C(=O)NCC3)c(C)c1` [Example 10A, 2,4,6-trimethyl-N-(1-oxo-1,2,3,4-tetrahydroisoquinolin-7-yl)benzenesulfonamide] gave an IC50 of 500 to 1000 nM. `CC(Nc1ccc2c(c1)C(=O)NCC2)c1cc(Cl)nc(Cl)c1` (racemic) [Example 98, 7-((1-(2,6-dichloropyridin-4-yl)ethyl)amino)-3,4-dihydroisoquinolin-1(2H)-one] showed an IC50 of over 1000 nM. `CC(Nc1ccc2cc[nH]c(=O)c2c1)c1nc2c(s1)CCCC2` (racemic) [Compound 236, 7-((1-(4,5,6,7-tetrahydrobenzo[d]thiazol-2-yl)ethyl)amino)isoquinolin-1(2H)-one] gave an IC50 of 100 to 500 nM. For `O=C1NCCc2cc(Cl)c(NS(=O)(=O)c3cccc(Cl)c3Cl)cc21` [Compound 47, 2,3-dichloro-N-(6-chloro-1-oxo-1,2,3,4-tetrahydroisoquinolin-7-yl)benzenesulfonamide], the IC50 was over 1000 nM.
